Source: patent US11299467B2 (Antabio SAS, priority 2017, dated 2022)
≈ marks a conversion by molar mass, not a printed value. Where two headings read alike, the source gives them in different places.

Tests used:
[1] = system: NTBC020 (E. coli strain expressing NDM-1, TEM-1 and CTX-M-15); test: Meropenem MIC, broth micro-dilution, NTBC020; type: cell-based; conditions: Escherichia coli, read-out: MIC mero
Experimental: (§1) The experiments were carried out using the ‘broth micro-dilution method’ according to the protocols M07-A8 established by the Clinical Laboratory Standards Institute (CLSI). Serial dilutions of the β-lactam antibiotic (Meropenem) were prepared in 96-well plates in cation-adjusted Mueller-Hinton broth (CAMHB); the concentration range was defined from 0.03 mg/L to 512 mg/L. The compounds were added at a constant concentration of 8 μg/mL. A bacterial inoculum of each strain (clinical isolates) was adjusted to a 0.5 McFarland turbidity standard in physiologic serum (0.9% NaCl), then diluted 1:100 in CAMHB and added to each well to give a final bacterial cell number of 5×10^5 CFU/well. After incubation for 18-20 hours in a heating chamber at 37° C., the growth inhibition was evaluated by the absence of any bacterial development.
(§2) Compounds of the invention were tested at a constant concentration of 8 μg/mL. […]
(§3) Experiments were carried out using the ‘broth micro-dilution method’ according to the protocols M07-A8 established by the Clinical Laboratory Standards Institute (CLSI). […] After incubation for 18-20 hours in a heating chamber at 37° C., the growth inhibition was evaluated by the absence of any bacterial development. […]

[2] = system: NTBC104-1 (K. pneumoniae strain expressing NDM-1 and SHV-11); test: Meropenem MIC, broth micro-dilution, NTBC104-1; type: cell-based; conditions: Klebsiella pneumoniae
Experimental: as §1
Compounds of the invention were tested at a constant concentration of 8 μg/mL. The clinical strains used in these potentiation experiments were NTBC020 (E. coli strain expressing NDM-1, TEM-1 and CTX-M-15); NTBC035-2 (K. pneumoniae strain expressing NDM-1, CMY-4 and SHV-11); NTBC104-1 (K. pneumoniae strain expressing NDM-1 and SHV-11); NTBC123 (K. pneumoniae strain expressing NDM-1); NTBC018 (C. freundii strain expressing VIM-2); NTBC024 (K. pneumoniae strain expressing VIM-19, TEM-1 and CTX-M-3); NTBC042 (E. coli strain expressing VIM-1, TEM-1, CTX-M-15, SHV-12); NTBC055 (E. Coli strain expressing VIM-1); NTBC062 (K. pneumoniae strain expressing IMP-1 and TEM-1) and NTBC039 (K. oxytoca strain expressing IMP-28).
(§4) Mice were infected in the thigh with K. pneumoniae NTBC104. […] The MIC of meropenem in the presence of 8 ug/mL of the compound of Example 2 is 4 ug/mL.
as §3

[3] = system: NTBC123 (K. pneumoniae strain expressing NDM-1); test: Meropenem MIC, broth micro-dilution, NTBC123; type: cell-based; conditions: Klebsiella pneumoniae, read-out: MIC mero
Experimental: as §1, §2, §3

[4] = system: NTBC055 (E. Coli strain expressing VIM-1); test: Meropenem MIC, broth micro-dilution, NTBC055; type: cell-based; conditions: Escherichia coli, read-out: MIC mero
Experimental: as §1, §2, §3

[5] = system: NTBC093 (E. cloacae strain expressing KPC-2 and TEM-1); test: Meropenem MIC, broth micro-dilution, NTBC093; type: cell-based; conditions: Enterobacter cloacae, read-out: MIC mero
Experimental: as §1, with “Experiments” for “The experiments”, “meropenem (mero)” for “the β-lactam antibiotic (Meropenem)”, “compounds (the compound of Example 2, above, and/or WCK4234)” for “compounds”, “the” for “a constant”, “indicated in the table below.” for “of 8 μg/mL.”
(§5) NTBC091-1 (E. coli strain expressing KPC-2 and TEM-1); NTBC093 (E. cloacae strain expressing KPC-2 and TEM-1); NTBC096-1 (K. pneumonia strain expressing OXA-181 and SHV-11); NTBC099 (K. pneumonia strain expressing KPC-3, SHV-11 and TEM-1); and NTBC189 (K. pneumonia strain expressing TEM-OSBL, CTX-M-14 and OXA-48).

[6] = system: NTBC096-1 (K. pneumonia strain expressing OXA-181 and SHV-11); test: Meropenem MIC, broth micro-dilution, NTBC096-1; type: cell-based; conditions: Klebsiella pneumoniae, read-out: MIC mero
Experimental: as §1, with “Experiments” for “The experiments”, “meropenem (mero)” for “the β-lactam antibiotic (Meropenem)”, “compounds (the compound of Example 2, above, and/or WCK4234)” for “compounds”, “the” for “a constant”, “indicated in the table below.” for “of 8 μg/mL.”
as §5

[7] = system: NTBC099 (K. pneumonia strain expressing KPC-3, SHV-11 and TEM-1); test: Meropenem MIC, broth micro-dilution, NTBC099; type: cell-based; conditions: Klebsiella pneumoniae, read-out: MIC mero
Experimental: as §1, with “Experiments” for “The experiments”, “meropenem (mero)” for “the β-lactam antibiotic (Meropenem)”, “compounds (the compound of Example 2, above, and/or WCK4234)” for “compounds”, “the” for “a constant”, “indicated in the table below.” for “of 8 μg/mL.”
as §5

[8] = system: NTBC189 (K. pneumonia strain expressing TEM-OSBL, CTX-M-14 and OXA-48); test: Meropenem MIC, broth micro-dilution, NTBC189; type: cell-based; conditions: Klebsiella pneumoniae, read-out: MIC mero
Experimental: as §1, with “Experiments” for “The experiments”, “meropenem (mero)” for “the β-lactam antibiotic (Meropenem)”, “compounds (the compound of Example 2, above, and/or WCK4234)” for “compounds”, “the” for “a constant”, “indicated in the table below.” for “of 8 μg/mL.”
as §5

[9] = system: NTBC185 (K. pneumonia strain expressing SHV-OSBL, TEM-OSBL, NDM-1 and OXA-48); test: Meropenem MIC, broth micro-dilution, NTBC185; type: cell-based; conditions: Klebsiella pneumoniae, read-out: MIC mero
Experimental: as §1, with “Experiments” for “The experiments”, “meropenem (mero)” for “the β-lactam antibiotic (Meropenem)”, “compounds (the compound of Example 2, above, and/or WCK4234)” for “compounds”, “the” for “a constant”, “indicated in the table below.” for “of 8 μg/mL.”
(§6) NTBC019 (K. pneumonia strain expressing NDM-1, CTX-M-15 and OXA-181); NTBC185 (K. pneumonia strain expressing SHV-OSBL, TEM-OSBL, NDM-1 and OXA-48); NTBC186 (K. pneumonia strain expressing ACT-TYPE, VIM-1 and OXA-48); NTBC187 (K. pneumonia strain expressing SHV-OSBL, NDM-1 and OXA-48); and NTBC188 (K. pneumonia strain expressing NDM-1 and KPC-2).

[10] = system: NTBC186 (K. pneumonia strain expressing ACT-TYPE, VIM-1 and OXA-48); test: Meropenem MIC, broth micro-dilution, NTBC186; type: cell-based; conditions: Klebsiella pneumoniae, read-out: MIC mero
Experimental: as §1, with “Experiments” for “The experiments”, “meropenem (mero)” for “the β-lactam antibiotic (Meropenem)”, “compounds (the compound of Example 2, above, and/or WCK4234)” for “compounds”, “the” for “a constant”, “indicated in the table below.” for “of 8 μg/mL.”
as §6

[11] = system: NTBC188 (K. pneumonia strain expressing NDM-1 and KPC-2); test: Meropenem MIC, broth micro-dilution, NTBC188; type: cell-based; conditions: Klebsiella pneumoniae
Experimental: as §1, with “Experiments” for “The experiments”, “meropenem (mero)” for “the β-lactam antibiotic (Meropenem)”, “compounds (the compound of Example 2, above, and/or WCK4234)” for “compounds”, “the” for “a constant”, “indicated in the table below.” for “of 8 μg/mL.”
as §6
Experiments were conducted as described above. Compounds (the compounds of Examples 2 and 26) were tested at 8 μg/mL. […] MIC values were determined for […]

K. pneumoniae NTBC104 = test: In vivo efficacy, mouse thigh infection with K. pneumoniae NTBC104; conditions: meropenem at 30 mg/kg alone, 9 hours post infection
Experimental: as §4
At the end of the experiment (9 hours post infection) the animals were sacrificed and the numbers of colony forming units (CFUs) were measured in order to quantify bacterial load (extent of the infection).

Structure (SMILES): C[C@@H](O)[C@H]1C(=O)N2C(C(=O)O)=C(S[C@@H]3CN[C@H](C(=O)N(C)C)C3)[C@H](C)[C@H]12 [Meropenem]
- MIC [1]: 128 mg/L
- MIC ([2]; read-out: MIC mero): 64 mg/L
- MIC ([2]; read-out: MIC of meropenem against K. pneumoniae NTBC104): 64 mg/L
- MIC [3]: 128 mg/L
- MIC [4]: 4 mg/L
- MIC [5]: 128 mg/L (≈ 334 µM)
- MIC [6]: 16 mg/L (≈ 41.7 µM)
- MIC [7]: 128 mg/L (≈ 334 µM)
- MIC [8]: 16 mg/L (≈ 41.7 µM)
- MIC [9]: 128 mg/L (≈ 334 µM)
- MIC [10]: 16 mg/L (≈ 41.7 µM)
- MIC ([11]; read-out: MIC mero): 32 mg/L (≈ 83.4 µM)
- MIC ([11]; read-out: MIC, NTBC188): 8 to 512 mg/L (≈ 20.9 to 1340 µM)
- bacterial load (CFUs) (K. pneumoniae NTBC104): reduced bacterial load slightly
